From US10722515B2, “Dual CLK/CDK1 inhibitors for cancer treatment” (SRI INTERNATIONAL, priority 2016, dated 2020)
Where two headings read alike, the source gives them in different places.

Experiments:
[1] = target: T1, CDK1/cyclinB(h) (Homo sapiens, UniProt P06493); assay: radiometric protein kinase assay, CDK1; type: biochemical; details: enzyme inhibition, ATP 45 μM
T1 construct: purchased Eurofins, Dundee, Scotland
Description: (§1) Enzymatic biochemical activities were evaluated in radiometric protein kinase assays (Eurofins, Dundee, Scotland). Kinases are incubated with buffer, substrate and [γ-^33P]-ATP (specific activity approx. 500 cpm/pmol, concentration as required). The reaction is initiated by the addition of the MgATP mix. After incubation for 40 minutes at room temperature, the reaction is stopped by the addition of 3% phosphoric acid solution. 10 μL of the reaction is then spotted onto a P30 filtermat and washed three times for 5 minutes in 75 mM phosphoric acid and once in methanol prior to drying and scintillation counting.
(§2) All compounds are prepared to 50× final assay concentration in 100% DMSO. Positive control wells contain all components of the reaction with 2% DMSO. Blank wells contain all components of the reaction, with a reference inhibitor replacing the compound of interest. Each kinase is assigned a standard assay concentration of ATP within 20 μM of its apparent KM. Compounds were screened at 1 μM in duplicate or tested at 10 concentrations at half log dilution starting from 10 μM in singlicate. Dose response curves were fitted with four parameter logistic curve to obtain IC50 values. The average coefficient of variation (CV) of the conducted assay is 4.4%.

[2] = target: T2, CLK3(h) (Homo sapiens, UniProt P49761); assay: radiometric protein kinase assay, CLK3; type: biochemical
T2 construct: purchased Eurofins, Dundee, Scotland
Description: as §1, §2

[3] = target: T3, CDK4/cyclinD3(h) (Homo sapiens, UniProt P11802); assay: radiometric protein kinase assay, CDK4; type: biochemical; details: enzyme inhibition, ATP 20 μM
T3 construct: purchased Eurofins, Dundee, Scotland
Description: as §1, §2

[4] = target: T4, CLK4(h) (Homo sapiens, UniProt Q9HAZ1); assay: radiometric protein kinase assay, CLK4; type: biochemical; details: enzyme inhibition, ATP 10 μM
T4 construct: purchased Eurofins, Dundee, Scotland
Description: as §1, §2

[5] = target: T5, CDK6/cyclinD3(h) (Homo sapiens, UniProt Q00534); assay: radiometric protein kinase assay, CDK6; type: biochemical; details: enzyme inhibition, ATP 20 μM
T5 construct: purchased Eurofins, Dundee, Scotland
Description: as §1, §2

[6] = target: T6, CLK1(h) (Homo sapiens, UniProt P49759); assay: radiometric protein kinase assay, CLK1; type: biochemical; details: enzyme inhibition, radiometric, ATP 10 μM; read-out: IC50 (nM) CLK1
T6 construct: purchased Eurofins, Dundee, Scotland
Description: as §1, §2

[7] = target: T7, CLK2(h) (Homo sapiens, UniProt P49760); assay: radiometric protein kinase assay, CLK2; type: biochemical; details: enzyme inhibition, ATP 10 μM
T7 construct: purchased Eurofins, Dundee, Scotland
Description: as §1, §2

[8] = test system: SK-MEL-2/Luc-MDM2 cells (MDM2-Luc exon-skipping reporter); assay: cell-based MDM2-Luc exon-skipping reporter assay; details: for MDM2/Luc: luciferase activation vs DMSO control, average of three experiments; for activity in the MDM2-Luc assay: at 10 μM; for MDM2-Luc activity: result in words, no concentration stated
[9] = test system: MDM2 alternate splicing in Rh-18 cells; assay: Rh-18 MDM2 RT-PCR gel-based assay (orthogonal secondary assay); type: cell-based; details: 10 μM, 8 h
Description: These hits were then subjected to a confirmatory assay in the Rh-18 MDM2 RT-PCR gel-based assay at a concentration of 10 μM.
Referring to FIG. 6, cells were exposed to 0.5% DMSO, 0.2 μM sudemycin D6 or […] CGP-74514A for 8 h. Total RNA was extracted by RNeasy Mini Kit (Qiagen). High capacity RNA-to-cDNA kit (Life technologies) was used to convert the RNA to cDNA.
Referring to FIG. 7, cells were exposed to 0.5% DMSO (lane 1), 1 μM sudemycin D6 (lane 2), 10 μM Compound 14 (lane 3), and 10 μM Compound 15 (lane 4) for 8 h. The total RNA was extracted by RNeasy Mini Kit (Qiagen). High capacity RNA-to-cDNA kit (Life technologies) was used to convert the RNA to cDNA. […] Ubiquitin transcripts (165 bp) in the same cells were used as a control (Fan et al. (2011) ACS Chem. Biol. 6: 582-9).

[10] = enzyme inhibition, radiometric, ATP 90 μM, read-out: IC50 (nM) CLK3

T7 sequence (P49760 whole entry): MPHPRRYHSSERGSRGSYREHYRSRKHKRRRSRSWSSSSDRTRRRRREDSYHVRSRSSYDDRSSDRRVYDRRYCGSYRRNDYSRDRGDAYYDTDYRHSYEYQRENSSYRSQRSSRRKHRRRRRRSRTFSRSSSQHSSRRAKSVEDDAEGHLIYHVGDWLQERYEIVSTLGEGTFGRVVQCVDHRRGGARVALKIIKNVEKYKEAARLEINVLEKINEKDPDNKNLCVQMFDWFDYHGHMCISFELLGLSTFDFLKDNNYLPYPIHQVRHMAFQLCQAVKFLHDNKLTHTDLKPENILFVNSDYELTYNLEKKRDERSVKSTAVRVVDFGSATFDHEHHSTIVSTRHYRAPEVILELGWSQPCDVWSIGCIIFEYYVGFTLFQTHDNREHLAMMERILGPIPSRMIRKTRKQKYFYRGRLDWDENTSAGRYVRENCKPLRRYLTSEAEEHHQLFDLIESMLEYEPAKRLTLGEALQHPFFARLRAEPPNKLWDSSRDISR
T3 sequence (P11802 whole entry): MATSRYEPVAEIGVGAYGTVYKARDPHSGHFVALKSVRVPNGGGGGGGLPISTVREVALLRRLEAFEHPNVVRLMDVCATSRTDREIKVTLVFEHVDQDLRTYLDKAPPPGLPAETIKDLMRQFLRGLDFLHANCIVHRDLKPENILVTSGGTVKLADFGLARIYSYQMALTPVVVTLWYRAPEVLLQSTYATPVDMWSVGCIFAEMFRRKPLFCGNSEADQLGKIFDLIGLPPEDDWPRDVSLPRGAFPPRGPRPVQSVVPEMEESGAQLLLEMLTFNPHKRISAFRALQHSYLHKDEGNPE
T3 sequence (P30281 whole entry partner): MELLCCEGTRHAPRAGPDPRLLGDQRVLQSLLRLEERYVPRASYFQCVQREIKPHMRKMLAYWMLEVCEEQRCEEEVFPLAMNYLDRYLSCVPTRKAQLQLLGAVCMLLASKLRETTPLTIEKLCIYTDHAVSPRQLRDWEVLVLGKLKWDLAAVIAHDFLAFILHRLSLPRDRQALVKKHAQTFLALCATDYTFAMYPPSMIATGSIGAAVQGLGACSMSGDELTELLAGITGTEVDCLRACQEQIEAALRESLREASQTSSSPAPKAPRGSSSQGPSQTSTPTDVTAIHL
T6 sequence (P49759 whole entry): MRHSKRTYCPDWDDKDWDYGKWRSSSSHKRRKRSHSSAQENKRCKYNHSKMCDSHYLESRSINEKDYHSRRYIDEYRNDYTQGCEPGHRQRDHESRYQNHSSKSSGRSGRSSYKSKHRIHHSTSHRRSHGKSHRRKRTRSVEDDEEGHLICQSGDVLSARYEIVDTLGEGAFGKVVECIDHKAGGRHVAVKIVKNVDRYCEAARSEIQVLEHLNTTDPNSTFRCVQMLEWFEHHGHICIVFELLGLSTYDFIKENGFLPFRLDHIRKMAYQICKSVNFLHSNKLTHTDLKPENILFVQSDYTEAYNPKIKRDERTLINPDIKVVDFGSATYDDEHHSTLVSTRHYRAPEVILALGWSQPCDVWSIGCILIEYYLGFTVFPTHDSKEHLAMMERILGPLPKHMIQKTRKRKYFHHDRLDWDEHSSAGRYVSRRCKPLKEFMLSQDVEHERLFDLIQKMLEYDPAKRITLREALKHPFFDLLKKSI
T1 sequence (P06493 whole entry): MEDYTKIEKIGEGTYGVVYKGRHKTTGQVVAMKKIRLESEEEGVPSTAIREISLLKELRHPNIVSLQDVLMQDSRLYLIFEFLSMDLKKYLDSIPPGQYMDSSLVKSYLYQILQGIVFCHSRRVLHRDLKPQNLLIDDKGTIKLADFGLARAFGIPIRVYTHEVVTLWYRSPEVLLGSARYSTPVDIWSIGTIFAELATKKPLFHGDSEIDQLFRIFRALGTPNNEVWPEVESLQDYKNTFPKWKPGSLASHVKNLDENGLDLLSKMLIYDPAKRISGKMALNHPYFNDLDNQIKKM
T1 sequence (P14635 whole entry partner): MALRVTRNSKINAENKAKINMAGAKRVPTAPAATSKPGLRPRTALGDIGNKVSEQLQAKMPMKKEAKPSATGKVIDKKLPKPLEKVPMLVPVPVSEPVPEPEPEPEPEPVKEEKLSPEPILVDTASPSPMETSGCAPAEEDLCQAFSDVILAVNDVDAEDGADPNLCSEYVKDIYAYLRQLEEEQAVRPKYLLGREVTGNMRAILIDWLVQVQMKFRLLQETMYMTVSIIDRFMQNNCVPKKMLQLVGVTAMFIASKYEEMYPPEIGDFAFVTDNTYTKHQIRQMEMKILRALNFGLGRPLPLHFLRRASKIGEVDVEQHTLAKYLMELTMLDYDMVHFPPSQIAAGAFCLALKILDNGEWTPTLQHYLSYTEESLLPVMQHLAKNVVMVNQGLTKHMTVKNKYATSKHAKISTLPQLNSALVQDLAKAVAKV
T2 sequence (P49761 whole entry): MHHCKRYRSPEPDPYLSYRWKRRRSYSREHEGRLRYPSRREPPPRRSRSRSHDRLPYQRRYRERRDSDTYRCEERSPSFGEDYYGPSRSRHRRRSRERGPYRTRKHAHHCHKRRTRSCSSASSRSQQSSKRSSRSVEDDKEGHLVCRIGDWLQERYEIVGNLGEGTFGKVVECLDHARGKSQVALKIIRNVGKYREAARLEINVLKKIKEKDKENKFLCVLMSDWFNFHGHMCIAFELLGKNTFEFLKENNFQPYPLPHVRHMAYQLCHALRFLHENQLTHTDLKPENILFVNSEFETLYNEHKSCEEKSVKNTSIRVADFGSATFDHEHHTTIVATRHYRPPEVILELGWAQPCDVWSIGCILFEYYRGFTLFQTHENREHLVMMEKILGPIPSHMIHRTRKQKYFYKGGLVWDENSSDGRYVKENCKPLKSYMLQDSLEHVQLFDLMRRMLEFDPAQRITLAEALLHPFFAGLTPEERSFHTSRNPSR
T5 sequence (Q00534 whole entry): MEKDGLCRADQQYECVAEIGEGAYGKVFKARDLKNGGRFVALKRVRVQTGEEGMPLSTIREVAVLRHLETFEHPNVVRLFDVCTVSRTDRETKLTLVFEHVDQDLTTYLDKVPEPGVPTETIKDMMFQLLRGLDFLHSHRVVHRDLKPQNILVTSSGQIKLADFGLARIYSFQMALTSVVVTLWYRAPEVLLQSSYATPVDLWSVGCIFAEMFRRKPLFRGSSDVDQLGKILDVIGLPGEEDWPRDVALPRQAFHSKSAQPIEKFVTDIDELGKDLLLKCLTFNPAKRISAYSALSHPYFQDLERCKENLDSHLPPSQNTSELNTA
T5 sequence (P30281 whole entry partner): as the sequence (P30281 whole entry partner) above
T4 sequence (Q9HAZ1 whole entry): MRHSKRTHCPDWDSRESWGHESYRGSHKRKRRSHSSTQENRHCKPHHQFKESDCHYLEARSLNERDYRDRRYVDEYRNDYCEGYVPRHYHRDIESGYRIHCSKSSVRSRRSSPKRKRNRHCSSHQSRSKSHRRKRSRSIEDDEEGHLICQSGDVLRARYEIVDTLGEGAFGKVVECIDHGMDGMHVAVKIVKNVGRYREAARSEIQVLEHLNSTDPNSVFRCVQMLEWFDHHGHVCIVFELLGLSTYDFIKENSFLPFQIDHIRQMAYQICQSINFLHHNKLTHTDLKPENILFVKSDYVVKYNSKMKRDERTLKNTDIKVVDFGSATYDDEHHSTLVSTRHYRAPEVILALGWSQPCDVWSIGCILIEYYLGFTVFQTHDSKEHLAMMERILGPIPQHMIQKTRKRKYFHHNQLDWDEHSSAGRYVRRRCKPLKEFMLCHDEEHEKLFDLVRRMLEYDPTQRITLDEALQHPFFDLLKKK

SMILES | IC50 [1] [nM] | IC50 [2, 10] [nM] | IC50 [3] [nM] | IC50 [4] [nM] | IC50 [5] [nM] | IC50 [6] [nM] | IC50 [7] [nM] | MDM2/Luc [8] | luciferase response (Luc fold) in the MDM2-Luc reporter assay ([8]; compared with less potent CLK inhibitors of the series) | activity in the MDM2-Luc assay [8] | IC50 [2] [nM] | activity in the Rh-18 MDM2 RT-PCR gel-based confirmatory assay [9] | MDM2-Luc activity [8]
CC(C)n1cnc2c(Nc3cc(N)cc(Cl)c3)nc(N[C@H]3CCCNC3)nc21 [Compound 22, (S)—N^6-(3-Amino-5-Chlorophenyl)-9-Isopropyl-N^2-(Piperidin-3-Yl)-9H-Purine-2,6-Diamine] | > 1000 | > 1000 | > 1000 | 61 | > 1000 | 31 | 26 | – | – | – | – | – | –
CC(C)n1cnc2c(Nc3cccc(Cl)c3)nc(N[C@@H]3CCCC[C@H]3N)nc21 [Compound 7, N-((1R,2R)-2-Aminocyclohexyl)-N^6-(3-Chlorophenyl)-9-Isopropyl-9H-Purine-2,6-Diamine] | > 1000 | > 1000 | > 1000 | 634 | > 1000 | 400 | 120 | Active | – | – | – | – | –
CC(C)n1cnc2c(Nc3cccc(Cl)c3)nc(N[C@H]3CCCC[C@H]3N)nc21 [Compound 10, N^2-((1S,2R)-2-Aminocyclohexyl)-N^6-(3-Chlorophenyl)-9-Isopropyl-9H-Purine-2,6-Diamine] | > 1000 | > 1000 | > 1000 | 70 | > 1000 | 74 | 26 | Active | stronger luciferase response | – | – | – | –
CCn1cnc2c(Nc3cccc(Cl)c3)nc(NC3CCCCC3NC(C)=O)nc21 (racemic) [Compound 12, Racemic N-Cis(2-((6-((3-Chlorophenyl)Amino)-9-Ethyl-9H-Purin-2-Yl)Amino)Cyclohexyl) Acetamide] | – | – | – | – | – | – | – | – | – | completely abrogated all activity | – | – | –
CC(C)n1cnc2c(Nc3cc(N)cc(Cl)c3)nc(N[C@H]3CCCC[C@H]3N)nc21 [Compound 17, N^6-(3-Amino-5-Chlorophenyl)-N^2-((1 S,2R)-2-Aminocyclohexyl)-9-Isopropyl-9H-Purine-2,6-Diamine] | > 1000 | > 1000 | > 1000 | 28 | > 1000 | 21 | 26 | – | – | – | – | – | –
CC(C)n1cnc2c(Nc3cc(N)cc(Cl)c3)nc(N[C@@H]3CCCNC3)nc21 [Compound 23, (R)—N^6-(3-Amino-5-Chlorophenyl)-9-Isopropyl-N^2-(Piperidin-3-Yl)-9H-Purine-2,6-Diamine] | > 1000 | > 1000 | > 1000 | 102 | > 1000 | 66 | 34 | – | – | – | – | – | –
CC(C)n1ccc2c(Nc3cccc(Cl)c3)nc(NC3CCCCC3N)nc21 (racemic) [Compound 11, Racemic-N^2-Cis((2-Aminocyclohexyl)-N^4-(3-Chlorophenyl)-7-Isopropyl-7H-Pyrrolo[2,3-D]Pyrimidine-2,4-Diamine] | – | – | – | – | – | – | – | – | – | completely abrogated all activity | – | – | –
CCc1cnn2c(NCc3ccc[n+]([O-])c3)cc(N3CCCC[C@H]3CCO)nc12 [dinaciclib, reference compound] | – | – | – | – | – | – | – | – | – | inactive | – | – | –
O=C(Nc1cc(C(F)(F)F)ccc1N1CCCCC1)c1ccncc1 [SRPIN340, reference compound] | – | – | – | – | – | – | – | – | – | inactive | – | – | –
CCn1cnc2c(Nc3cccc(Cl)c3)nc(N[C@@H]3CCCC[C@H]3N)nc21 [Compound 5, N-((1R,2R)-2-Aminocyclohexyl)-V-(3-Chlorophenyl)-9-Ethyl-9H-Purine-2,6-Diamine] | 546 | – | > 1000 | > 1000 | > 1000 | 868 | 498 | Active | – | – | > 1000 | – | –
CC(C)n1cnc2c(Nc3cc(N)cc(Cl)c3)nc(N[C@H]3CCNC3)nc21 [Compound 24, (S)—N^6-(3-Amino-5-Chlorophenyl)-9-Isopropyl-N^2-(Pyrrolidin-3-Yl)-9-Purine-2,6-Diamine] | > 1000 | > 1000 | > 1000 | 77 | > 1000 | 71 | 28 | – | – | – | – | – | –
CC(C)n1cnc2c(Nc3cc(N)cc(Cl)c3)nc(N[C@@H]3CCCC[C@@H]3N)nc21 [Compound 16, 1V-(3-Amino-5-Chlorophenyl)-N-((1R,2S)-2-Aminocyclohexyl)-9-Isopropyl-9H-Purine-2,6-Diamine] | – | – | – | 25 | – | 17 | 6 | – | – | – | – | – | –
CC(C)n1cnc2c(Nc3cc(N)cc(Cl)c3)nc(N[C@@H]3CCNC3)nc21 [Compound 25, (R)—N^6-(3-Amino-5-Chlorophenyl)-9-Isopropyl-N^2-(Pyrrolidin-3-Yl)-9H-Purine-2,6-Diamine] | > 1000 | > 1000 | > 1000 | 299 | > 1000 | 118 | 92 | – | – | – | – | – | –
CC(C)n1cnc2c(Nc3cc(N)cc(Cl)c3)nc(N[C@H]3CCCC[C@@H]3N)nc21 [Compound 20, 1V-(3-Amino-5-Chlorophenyl)-M-((1 S,2S)-2-Aminocyclohexyl)-9-Isopropyl-9H-Purine-2,6-Diamine] | > 1000 | > 1000 | > 1000 | 124 | > 1000 | 56 | 14 | – | – | – | – | – | –
CC(C)[C@H](CO)Nc1nc(Nc2cc(N)cc(Cl)c2)c2ncn(C(C)C)c2n1 [Aminopurvalanol A, reference compound] | – | – | – | – | – | – | – | – | – | – | – | clear activity | –
CC(C)n1cnc2c(Nc3cc(N)cc(Cl)c3)nc(N[C@@H]3CCCC[C@H]3N)nc21 [Compound 21, N^6-(3-Amino-5-Chlorophenyl)-N-((1R,2R)-2-Aminocyclohexyl)-9-Isopropyl-9H-Purine-2,6-Diamine] | > 1000 | > 1000 | > 1000 | 648 | > 1000 | 274 | 163 | – | – | – | – | – | –
COCCNc1nc(Nc2cccc(Cl)c2)c2ncn(C(C)C)c2n1 [Compound 13, N^6-(3-Chlorophenyl)-9-Isopropyl-N^2-(2-Methoxyethyl)-9H-Purine-2,6-Diamine] | – | – | – | – | – | – | – | – | – | – | – | – | dramatically reduced activity
CCn1cnc2c(Nc3cccc(Cl)c3)nc(N[C@H]3CCCC[C@@H]3N)nc21 [Compound 6, N^2-((1 S,2S)-2-Aminocyclohexyl)-V-(3-Chlorophenyl)-9-Ethyl-9H-Purine-2,6-Diamine] | > 1000 | – | > 1000 | 498 | > 1000 | 371 | 190 | Active | – | – | > 1000 | – | –
CC(=O)Nc1cc(Cl)cc(Nc2nc(N[C@@H]3CCCC[C@@H]3N)nc3c2ncn3C(C)C)c1 [Compound 18, N-(3-((2-(((1R,2S)-2-Aminocyclohexyl)Amino)-9-Isopropyl-9H-Purin-6-Yl)Amino)-5-Chlorophenyl)Acetamide] | > 1000 | > 1000 | 611 | 30 | > 1000 | 19 | 7 | – | – | – | – | – | –
CCOC(=O)c1c(/C(C#N)=C\N)c2ccc(Cl)c(Cl)c2n1C [KH-CB19, reference compound] | – | – | – | – | – | – | – | – | – | – | – | – | modest activity
CC(=O)Nc1cc(Cl)cc(Nc2nc(N[C@H]3CCCC[C@H]3N)nc3c2ncn3C(C)C)c1 [Compound 19, N-(3-((2-(((1S,2R)-2-Aminocyclohexyl)Amino)-9-Isopropyl-9H-Purin-6-Yl)Amino)-5-Chlorophenyl)Acetamide] | > 1000 | > 1000 | > 1000 | 31 | > 1000 | 26 | 17 | – | – | – | – | – | –
